pIC50: −log10 of the molar value.
Key:
[1] = system: Ba/F3 (Δ19del/T790M/C797S) xenograft; experiment: In vivo efficacy (1): Ba/F3 (Δ19del/T790M/C797S) subcutaneous xenograft (CDX) in BALB/c nude mice; details: for TGI (the tumor inhibition value): 45 mg/kg oral daily, 13 consecutive days;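 for all read-outs here: female nude mice, dosing begun at mean tumor size near 80–120 mm^3, tumors measured by caliper twice weekly, volume in mm^3 computed as 0.5×long×short diameter squared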
Description: BALB/c nude mice, female, 6-8 weeks old, 18-20 g of body weight, were housed in SPF-grade environment, and each cage was individually ventilated (5 mice per cage). […] A total of 48 mice purchased from Beijing Weitonglihua company were used for the study. Each mouse was implanted with cells at the right flank, for tumor growth. The experiment was started when the average tumor volume reached approximately 80-120 mm^3. […] Tumor volume was measured twice a week with a two-dimensional caliper, measured in mm^3 and calculated by the following formula: V=0.5a×b^2, wherein a and b are the long and short diameters of the tumor, respectively. Antitumor efficacy was determined by dividing the average increase of the tumor volume of the animals treated with the compound by the average increase of the tumor volume of the untreated animals.

[2] = target: EGFR (C797S/T790M/L858R) (Homo sapiens (Human), UniProt P00533, C797S/L858R/T790M); experiment: Enzyme activity experiment (2): EGFR (C797S/T790M/L858R) enzyme inhibition; format: biochemical
Chain of EGFR (C797S/T790M/L858R) (P00533 25-1210 T790M/C797S/L858R): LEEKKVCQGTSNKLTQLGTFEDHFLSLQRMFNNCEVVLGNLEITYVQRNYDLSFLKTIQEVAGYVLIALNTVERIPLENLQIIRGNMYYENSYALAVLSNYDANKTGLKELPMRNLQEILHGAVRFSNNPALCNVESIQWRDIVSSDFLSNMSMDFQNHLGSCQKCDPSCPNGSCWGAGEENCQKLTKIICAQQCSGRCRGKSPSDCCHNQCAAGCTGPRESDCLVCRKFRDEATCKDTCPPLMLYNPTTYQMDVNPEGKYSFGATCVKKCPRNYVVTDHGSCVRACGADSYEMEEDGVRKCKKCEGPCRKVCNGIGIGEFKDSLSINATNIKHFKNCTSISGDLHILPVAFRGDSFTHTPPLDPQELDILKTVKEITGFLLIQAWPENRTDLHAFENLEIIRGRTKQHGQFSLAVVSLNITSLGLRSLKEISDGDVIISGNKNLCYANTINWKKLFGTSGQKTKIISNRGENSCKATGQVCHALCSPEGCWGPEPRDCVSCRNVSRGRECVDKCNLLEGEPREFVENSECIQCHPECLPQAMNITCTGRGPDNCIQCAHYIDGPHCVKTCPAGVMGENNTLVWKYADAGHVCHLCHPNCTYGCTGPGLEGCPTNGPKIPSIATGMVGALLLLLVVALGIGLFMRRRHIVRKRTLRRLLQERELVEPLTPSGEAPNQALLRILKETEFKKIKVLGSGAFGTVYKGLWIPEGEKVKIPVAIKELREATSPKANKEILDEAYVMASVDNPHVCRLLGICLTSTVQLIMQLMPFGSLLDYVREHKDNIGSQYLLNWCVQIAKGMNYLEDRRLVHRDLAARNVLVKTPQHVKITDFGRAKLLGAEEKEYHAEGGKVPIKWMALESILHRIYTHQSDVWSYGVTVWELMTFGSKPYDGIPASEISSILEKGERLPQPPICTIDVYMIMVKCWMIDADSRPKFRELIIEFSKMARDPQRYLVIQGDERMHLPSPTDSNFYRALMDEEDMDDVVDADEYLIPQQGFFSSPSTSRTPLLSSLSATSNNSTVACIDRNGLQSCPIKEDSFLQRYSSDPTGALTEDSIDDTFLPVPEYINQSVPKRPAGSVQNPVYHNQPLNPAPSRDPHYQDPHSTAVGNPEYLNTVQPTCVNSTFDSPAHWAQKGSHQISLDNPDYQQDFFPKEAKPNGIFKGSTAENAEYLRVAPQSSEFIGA
Description: (§1) 1. Gradient Dilution of the Compound:
(§2) The dilution and transfer of the compounds were completed by Echo by Labcyte Inc., with a three-fold concentration gradient, a total of 11 dose points, and 100 nL of the compounds per well. The maximum concentration of the test compounds in the kinase reaction solutions was 1000 nM. The maximum concentration of the reference compound (Crizotinib & AP26113) in the kinase reaction solution was 1000 nM. The maximum concentration of the reference compound (AZD9291) in the kinase reaction solution was 300 nM.
(§3) The plate was centrifuged at a speed of 1000 rpm for 60 seconds. The test plate was incubated at 23° C. for 15 minutes.
(§4) (3) The test plate was film sealed and incubated at 23° C. for 90 minutes.
(§5) (4) The test plate was added with 2× detection solution (4 nM TK antibody and 125 nM XL665), 10 μL per well, and centrifuged at a speed of 1000 rpm for 60 seconds, and film sealed, which was incubated at 23° C. for 60 minutes.
(§6) (5) The plate was read on the Multi-Mark Detector Envision.

[3] = target: EGFR (WT) (Homo sapiens (Human), UniProt P00533); experiment: Enzyme activity experiment (2): EGFR WT enzyme inhibition; format: biochemical
Chain of EGFR (WT) (P00533 25-1210): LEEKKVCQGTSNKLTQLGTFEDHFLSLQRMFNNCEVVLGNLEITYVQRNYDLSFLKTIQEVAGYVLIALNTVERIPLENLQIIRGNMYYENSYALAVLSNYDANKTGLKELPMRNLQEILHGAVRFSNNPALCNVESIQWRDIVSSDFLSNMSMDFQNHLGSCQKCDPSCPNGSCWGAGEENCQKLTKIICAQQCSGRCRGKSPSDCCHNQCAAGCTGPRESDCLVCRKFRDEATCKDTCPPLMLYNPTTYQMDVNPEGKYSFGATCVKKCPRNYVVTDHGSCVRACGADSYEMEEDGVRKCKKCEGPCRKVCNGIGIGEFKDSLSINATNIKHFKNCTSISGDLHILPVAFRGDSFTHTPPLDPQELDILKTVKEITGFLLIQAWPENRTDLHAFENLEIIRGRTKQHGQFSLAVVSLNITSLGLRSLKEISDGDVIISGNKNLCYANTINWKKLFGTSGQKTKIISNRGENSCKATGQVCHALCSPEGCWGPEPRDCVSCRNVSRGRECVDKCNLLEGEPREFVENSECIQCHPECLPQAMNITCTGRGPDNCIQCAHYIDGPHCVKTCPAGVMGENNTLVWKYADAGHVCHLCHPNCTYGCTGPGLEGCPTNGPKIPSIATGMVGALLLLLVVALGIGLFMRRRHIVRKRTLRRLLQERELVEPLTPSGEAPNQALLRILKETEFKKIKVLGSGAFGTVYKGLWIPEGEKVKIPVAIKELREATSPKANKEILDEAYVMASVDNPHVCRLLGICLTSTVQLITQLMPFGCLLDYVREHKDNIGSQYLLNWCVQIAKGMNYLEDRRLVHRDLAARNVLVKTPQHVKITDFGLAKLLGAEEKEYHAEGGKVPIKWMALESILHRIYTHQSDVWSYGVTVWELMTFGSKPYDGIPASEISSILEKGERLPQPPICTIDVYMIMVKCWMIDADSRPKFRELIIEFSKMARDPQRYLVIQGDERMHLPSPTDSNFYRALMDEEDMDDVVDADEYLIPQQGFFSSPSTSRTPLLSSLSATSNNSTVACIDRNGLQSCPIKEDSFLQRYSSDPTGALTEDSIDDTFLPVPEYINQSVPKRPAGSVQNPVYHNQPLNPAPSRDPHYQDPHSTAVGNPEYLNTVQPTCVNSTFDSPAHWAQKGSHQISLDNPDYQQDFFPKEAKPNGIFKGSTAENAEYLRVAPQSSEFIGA
Description: as §1, §2, §3, §4, §5, §6

[4] = target: EGFR (Δ19del/T790M/C797S) (Homo sapiens, UniProt P00533, C797S/T790M, form not given); experiment: Enzyme activity experiment (1): EGFR (Δ19del/T790M/C797S) enzyme inhibition; format: biochemical; details: read-out: EGFR (Δ19del/T790M/C797S) IC50
Chain of EGFR (Δ19del/T790M/C797S) (P00533 25-1210 T790M/C797S limits assumed, form open): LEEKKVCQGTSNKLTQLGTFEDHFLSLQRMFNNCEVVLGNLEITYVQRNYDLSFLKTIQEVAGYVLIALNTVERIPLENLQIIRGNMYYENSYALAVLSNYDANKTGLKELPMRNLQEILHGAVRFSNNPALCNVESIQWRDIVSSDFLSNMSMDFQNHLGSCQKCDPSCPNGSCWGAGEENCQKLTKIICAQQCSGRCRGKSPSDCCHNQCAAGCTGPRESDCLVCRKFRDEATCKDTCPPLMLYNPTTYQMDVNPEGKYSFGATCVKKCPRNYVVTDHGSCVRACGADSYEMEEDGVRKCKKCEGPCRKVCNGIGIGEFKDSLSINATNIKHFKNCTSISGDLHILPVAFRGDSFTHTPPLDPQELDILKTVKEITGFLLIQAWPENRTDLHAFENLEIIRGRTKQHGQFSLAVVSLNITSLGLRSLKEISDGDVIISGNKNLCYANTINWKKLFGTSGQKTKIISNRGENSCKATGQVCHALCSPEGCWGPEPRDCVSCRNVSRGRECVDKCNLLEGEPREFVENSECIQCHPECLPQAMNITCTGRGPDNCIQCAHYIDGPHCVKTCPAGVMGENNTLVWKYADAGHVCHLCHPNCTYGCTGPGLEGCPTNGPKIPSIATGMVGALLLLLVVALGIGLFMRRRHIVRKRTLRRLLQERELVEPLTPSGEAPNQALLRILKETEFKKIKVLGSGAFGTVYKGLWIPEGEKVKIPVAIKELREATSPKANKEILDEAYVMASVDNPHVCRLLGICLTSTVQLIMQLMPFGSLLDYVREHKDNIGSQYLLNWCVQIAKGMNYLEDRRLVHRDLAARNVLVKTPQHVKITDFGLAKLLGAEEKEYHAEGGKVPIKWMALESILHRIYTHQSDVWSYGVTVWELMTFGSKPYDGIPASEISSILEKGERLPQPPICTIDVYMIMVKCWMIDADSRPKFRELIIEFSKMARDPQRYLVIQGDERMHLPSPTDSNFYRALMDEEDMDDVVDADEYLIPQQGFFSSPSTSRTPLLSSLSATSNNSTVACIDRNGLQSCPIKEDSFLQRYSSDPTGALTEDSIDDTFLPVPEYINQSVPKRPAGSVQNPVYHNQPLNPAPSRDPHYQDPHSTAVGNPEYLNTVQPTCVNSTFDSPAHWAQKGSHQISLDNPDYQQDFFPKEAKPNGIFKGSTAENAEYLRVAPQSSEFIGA
Description: 1) 10 μL of the compounds to be tested and reference compounds diluted to 10 mM were taken into an Echo LDV plate, which were diluted according to the compound profile with Echo.
1) 1×enzyme reaction buffer was prepared: 1× enzyme buffer, 5 mM MgCl2, 1 mM DTT (dithiothreitol), water.
2) A mixed solution of 10 nM enzyme (final concentration of 5 nM) and 2 μM substrate (final concentration of 1 μM) and a solution containing the substrate alone were prepared with the diluted enzyme reaction buffer.
3) 5 μL of the substrate was added into A1-H1, J24-P24 (the number of the well position), and 5 μL of the mixture of the enzyme and substrate was added into the remaining wells.
4) Centrifugation was performed at 1000 rpm at 23° C. for 30 s.
5) Incubation was performed at 23° C. for 15 min.
7) Centrifugation was performed at 1000 rpm at 23° C. for 30 s.
8) Incubation was performed at 23° C. for 60 min.
9) 10 μL of 250 nM TK Antibody-Crypate (a final concentration of 125 nM) and 1×D2 (a final concentration ½ time) prepared with Detection buffer were added.
10) Centrifugation was performed at 1000 rpm at 23° C. for 30 s.
11) Incubation was performed at 23° C. for 60 min.
12) The data was read with Envision, and the ratio was calculated to obtain the IC50 of the compound for inhibiting the enzyme activity.

Compound | Tumor volume Day 0 ([1]; 5 mg/kg/day oral) | Tumor volume Day 2 ([1]; 5 mg/kg/day oral) | Tumor volume Day 5 ([1]; 5 mg/kg/day oral) | Tumor volume Day 8 ([1]; 5 mg/kg/day oral) | Tumor volume Day 10 ([1]; 5 mg/kg/day oral) | Tumor volume Day 12 ([1]; 5 mg/kg/day oral) | Tumor volume Day 13 ([1]; 5 mg/kg/day oral) | Tumor volume Day 0 ([1]; 15 mg/kg/day oral) | Tumor volume Day 2 ([1]; 15 mg/kg/day oral) | Tumor volume Day 5 ([1]; 15 mg/kg/day oral) | Tumor volume Day 8 ([1]; 15 mg/kg/day oral) | Tumor volume Day 10 ([1]; 15 mg/kg/day oral) | Tumor volume Day 12 ([1]; 15 mg/kg/day oral) | Tumor volume Day 13 ([1]; 15 mg/kg/day oral) | TGI (the tumor inhibition value) [1] | Tumor volume Day 0 ([1]; 45 mg/kg/day oral) | Tumor volume Day 2 ([1]; 45 mg/kg/day oral) | Tumor volume Day 5 ([1]; 45 mg/kg/day oral) | Tumor volume Day 8 ([1]; 45 mg/kg/day oral) | Tumor volume Day 10 ([1]; 45 mg/kg/day oral) | other results
COc1cc(N2CCC(N3CCN(C)CC3)CC2)c(C)cc1Nc1ncc(Br)c(Nc2ccc3nccnc3c2P(C)(C)=O)n1 [Compound 34] | 84 mm^3 | 108 mm^3 | 212 mm^3 | 395 mm^3 | 505 mm^3 | 748 mm^3 | 881 mm^3 | 84 mm^3 | 76 mm^3 | 107 mm^3 | 126 mm^3 | 176 mm^3 | 292 mm^3 | 326 mm^3 | 101% | 84 mm^3 | 56 mm^3 | 32 mm^3 | 35 mm^3 | 42 mm^3 | Tumor volume Day 12 ([1]; 45 mg/kg/day oral): 73 mm^3; Tumor volume Day 13 ([1]; 45 mg/kg/day oral): 68 mm^3
CCc1cc(Nc2ncc(Br)c(Nc3ccc4nccnc4c3P(C)(C)=O)n2)c(OC)cc1N1CCC(N2CCN(C)CC2)CC1 [Compound 41] | 84 mm^3 | 103 mm^3 | 203 mm^3 | 348 mm^3 | 485 mm^3 | 707 mm^3 | 814 mm^3 | 84 mm^3 | 68 mm^3 | 69 mm^3 | 82 mm^3 | 115 mm^3 | 146 mm^3 | 211 mm^3 | 109% | 84 mm^3 | 47 mm^3 | 24 mm^3 | 7 mm^3 | 4 mm^3 | Tumor volume Day 12 ([1]; 45 mg/kg/day oral): 0 mm^3; Tumor volume Day 13 ([1]; 45 mg/kg/day oral): 0 mm^3; pIC50 [2]: 9.59; pIC50 [3]: 8.29; pIC50 [4]: 9.67
